{
  "source": "patent US12292445B2",
  "about": "“Methods of selecting subjects for treatment with metabolomic modulators” (priority 2018, dated 2025)",
  "key": {"P. merdae": {"test_system": "P. merdae", "test": "Cross-feeding in vitro assay, P. merdae viability after GGsTop pre-treatment", "assay_type": "cell-based, Parabacteroides merdae", "conditions": "500 uM GGsTop pre-treatment, 2 hours, 37° C., pilot experiments", "procedure": "(§1) Cross-feeding was measured as previously described. A. muciniphila was embedded at 2×10^6 cfu/ml in 5 ml pre-reduced CD or KD-based liquid media supplemented with 1% agar at the bottom of an anaerobic tube, and P. merdae was overlaid above it at 6×10^6 cfu/ml in 5 ml pre-reduced M9 minimal media. Diet-based media were generated by aseptically suspending mouse KD vs. CD diets, described above, to 2 kcal/ml in M9 media. Pilot experiments confirmed no ectopic translocation of embedded A. muciniphila from the agar compartment into the above M9 liquid compartment. For each time point, aliquots were taken from the top and bottom compartments, plated in a dilution series in rich media (RCM for P. merdae and BHI +0.05% mucins for A. muciniphila), and colonies were counted. For GGsTop pre-treatment experiments, P. merdae was incubated with 500 uM GGsTop vs vehicle in RCM media at 37° C. for 2 hours and then washed with sterile media."}, "[1]": {"test_system": "gamma-glutamyltranspeptidase (GGT)", "test": "GGT activity assay in cultured P. merdae", "assay_type": "biochemical, Parabacteroides merdae", "conditions": "conventionally-cultured P. merdae, 500 uM GGsTop vs vehicle", "procedure": "as §1\nGGT activity was measured as previously described. For anaerobic cultures, bacteria were seeded at 3×10^5 cfu/ml in CD- and KD-based media. 1 ml bacterial suspension was pelleted and frozen at −80° C. for 1 hr. […] Absorbance at 405 nm denoting production of 3-carboxy-4-nitroaniline was measured every minute for 1 hr at 37° C. using an automated multimode plate reader (Biotek Synergy H1)."}, "Kcnal−/− mice": {"test_system": "Kcnal−/− mice", "test": "Kcnal seizure recordings (EEG)", "assay_type": "in vivo, mouse", "conditions": "CD-fed SPF Kcnal−/− mice, oral gavage 13.3 mg/kg every 12 hours", "procedure": "EEGs were recorded from male and female Kcnal^−/− mice at 6-7 weeks of age. Kcnal^+/+ littermates were used as controls. There were no significant differences observed between males and females in seizure frequency and duration. Data presented include both sexes. Mice were anesthetized with isoflurane (5% induction, 2% maintenance) and eye ointment applied to each eye. Fur was removed along the head, and the area was cleaned with three alternative scrubs of chlorohexidine and 70% isopropanol. In a biosafety cabinet, mice were positioned in a stereotaxic apparatus (Harvard Biosciences) and 1 mg/kg lidocaine +1 mg/kg bupivacaine was applied locally along the incision site. […]\nDuring EEG recordings, animals were freely moving and maintained on experimental diet. […] Simultaneous video recordings of behavioral seizures were correlated with EEG recordings and scored based on an adapted Racine scale and defined by 5 stages: 1) myoclonic jerk, 2) head stereotypy and facial clonus, 3) bilateral and alternating forelimb/hindlimb clonus, 4) rearing and falling, and 5) generalized tonic-clonic episodes. Data were analyzed by a blinded researcher using Neuroscore CNS Software (DSI). EEG signals were filtered using a 10 Hz high pass filter, and seizure events were detected by blinded manual scoring. […]"}, "A. muciniphila": {"test_system": "A. muciniphila", "test": "Cross-feeding in vitro assay, A. muciniphila growth", "assay_type": "cell-based, Akkermansia muciniphila", "conditions": "A. muciniphila in CD agar exposed to P. merdae pre-treated with 500 uM GGsTop vs vehicle, 24 hours", "procedure": "as §1"}, "SPF Swiss Webster mice": {"test_system": "SPF Swiss Webster mice", "test": "6-Hz psychomotor seizure assay", "assay_type": "in vivo", "conditions": "SPF mice fed CD, oral gavage 13.3 mg/kg every 12 hours for 3 days, vs vehicle", "procedure": "The 6-Hz test was conducted as previously described. […] All subsequent experimental cohorts contained male mice. One drop (˜50 ul) of 0.5% tetracaine hydrochloride ophthalmic solution was applied to the corneas of each mouse 10-15 min before stimulation. Corneal electrodes were coated with a thin layer of electrode gel (Parker Signagel). A constant-current current device (ECT Unit 57800, Ugo Basile) was used to deliver current at 3 sec duration, 0.2 ms pulse-width and 6 pulses/s frequency. CC50 (the intensity of current required to elicit seizures in 50% of the experimental group) was measured as a metric for seizure susceptibility. […] Locomotor behavior was recorded using Ethovision XT software (Noldus) and quantitative measures for falling, tail dorsiflexion (Straub tail), forelimb clonus, eye/vibrissae twitching and behavioral remission were scored manually. […] Latency to exploration (time elapsed from when an experimental mouse is released into the observation cage (after corneal stimulation) to its first lateral movement) was scored using Ethovision and manually with an electronic timer. […] Seizure threshold (CC50) was determined as previously described, using the average log interval of current steps per experimental group, where sample n is defined as the subset of animals displaying the less frequent seizure behavior. […]"}, "[2]": {"test_system": "gamma-glutamyltranspeptidase (GGT)", "test": "GGT activity assay, fecal samples exposed to GGsTop", "assay_type": "biochemical, mouse", "conditions": "all fecal samples (SPF CD, SPF KD, AkkPb KD, AkkPb CD), 500 uM GGsTop", "procedure": "GGT activity was measured as previously described. For anaerobic cultures, bacteria were seeded at 3×10^5 cfu/ml in CD- and KD-based media. 1 ml bacterial suspension was pelleted and frozen at −80° C. for 1 hr. Separate aliquots of the same suspension were plated in BHI mucin agar media or RCM and incubated at 37° C. in a Coy anaerobic chamber for later data normalization by bacterial cfu. Pellets were then resuspended in 250 ul lysis buffer (50 mM Tris-HCl with 1 ug/ml lysozyme) and incubated on ice for 30 min. For fecal samples, one pellet was weighed and homogenized in 1 ml lysis buffer. Bacterial and fecal suspensions were then sonicated (QSonica 125) and centrifuged at 12000×g for 10 min at 4° C. 20 ul supernatant was mixed with 180 ul substrate buffer (2.9 mM L-gamma-glutamyl-3-carboxy-4-nitroanilide (Gold Bio), 100 mM of glycylglycine (Sigma Aldrich), 100 mM Tris-HCl), and 500 uM GGsTop (if noted). Absorbance at 405 nm denoting production of 3-carboxy-4-nitroaniline was measured every minute for 1 hr at 37° C. using an automated multimode plate reader (Biotek Synergy H1)."}},
  "data": [
    {"smiles": "COP(=O)(CCC(N)C(=O)O)Oc1cccc(CC(=O)O)c1", "note": "(stereo not drawn) [GGsTop, 3-[[(3-amino-3-carboxypropyl)methoxyphosphinyl]oxy]benzeneacetic acid]", "values": [
      {"measurement": "P. merdae viability", "setting": "P. merdae", "value": "no significant effect"},
      {"measurement": "GGT activity in P. merdae", "setting": "[1]", "value": "ablated"},
      {"measurement": "seizures per day (EEG)", "setting": "Kcnal−/− mice", "value": "significant decrease in seizures per day"},
      {"measurement": "A. muciniphila growth", "setting": "A. muciniphila", "value": "increased growth"},
      {"measurement": "6-Hz seizure threshold (CC50)", "setting": "SPF Swiss Webster mice", "value": "increases in seizure thresholds toward levels seen in SPF KD mice"},
      {"measurement": "fecal GGT activity signal", "setting": "[2]", "value": "eliminated the detected signals"}
    ]}
  ]
}
